Measurements from ChEMBL document CHEMBL4507318, “Data for DCP probe BAY-985” (2021).

Assays:
[1] = system: Tyrosine-protein kinase ABL1 (Homo sapiens), P00519 [E255K]
[2] = system: Tyrosine-protein kinase ABL1 (Homo sapiens), P00519 [M351T]
[3] = system: Tyrosine-protein kinase ABL1 (Homo sapiens), P00519 [Q252H]
[4] = system: Tyrosine-protein kinase ABL1 (Homo sapiens), P00519 [Y253F]
[5] = target: Tyrosine-protein kinase ABL1 (Homo sapiens) (UniProt P00519)
[6] = target: Activin receptor type-2A (Homo sapiens) (UniProt P27037)
[7] = target: Aurora kinase A (Homo sapiens) (UniProt O14965)
Chain of Aurora kinase A (Homo sapiens) (O14965 whole entry): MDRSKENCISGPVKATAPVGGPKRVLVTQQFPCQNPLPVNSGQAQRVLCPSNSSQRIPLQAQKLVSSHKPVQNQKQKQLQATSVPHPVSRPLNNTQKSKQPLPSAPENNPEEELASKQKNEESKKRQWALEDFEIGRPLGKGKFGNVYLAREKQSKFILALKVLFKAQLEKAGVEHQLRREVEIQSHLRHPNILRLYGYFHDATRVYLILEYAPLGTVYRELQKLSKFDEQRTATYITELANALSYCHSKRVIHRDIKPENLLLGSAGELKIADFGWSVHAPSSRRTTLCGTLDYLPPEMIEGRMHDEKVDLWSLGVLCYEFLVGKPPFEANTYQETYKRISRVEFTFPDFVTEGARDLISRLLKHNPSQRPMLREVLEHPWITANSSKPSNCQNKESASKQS

[8] = target: Bone morphogenetic protein receptor type-1A (Homo sapiens) (UniProt P36894)
[9] = target: Casein kinase I isoform alpha (Homo sapiens) (UniProt P48729)
[10] = target: Casein kinase I isoform gamma-3 (Homo sapiens) (UniProt Q9Y6M4)
[11] = target: Casein kinase II subunit alpha' (Homo sapiens) (UniProt P19784)
Chain of Casein kinase II subunit alpha' (Homo sapiens) (P19784 whole entry, looked up): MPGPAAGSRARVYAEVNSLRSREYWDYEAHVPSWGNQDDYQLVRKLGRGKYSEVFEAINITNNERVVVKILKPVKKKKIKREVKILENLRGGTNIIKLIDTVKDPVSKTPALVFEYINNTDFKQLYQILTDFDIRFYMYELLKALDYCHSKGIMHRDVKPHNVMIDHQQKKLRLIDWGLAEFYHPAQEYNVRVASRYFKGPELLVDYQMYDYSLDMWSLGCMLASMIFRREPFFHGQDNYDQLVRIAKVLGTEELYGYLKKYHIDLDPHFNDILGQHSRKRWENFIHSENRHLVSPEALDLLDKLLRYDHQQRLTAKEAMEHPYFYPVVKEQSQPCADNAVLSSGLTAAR

[12] = target: Death-associated protein kinase 2 (Homo sapiens) (UniProt Q9UIK4)
[13] = system: Epidermal growth factor receptor (Homo sapiens), P00533 [UNDEFINED MUTATION]
[14] = target: Ephrin type-A receptor 6 (Homo sapiens) (UniProt Q9UF33)
[15] = target: Fibroblast growth factor receptor 4 (Homo sapiens) (UniProt P22455)
Chain of Fibroblast growth factor receptor 4 (Homo sapiens) (P22455 22-802 limits assumed): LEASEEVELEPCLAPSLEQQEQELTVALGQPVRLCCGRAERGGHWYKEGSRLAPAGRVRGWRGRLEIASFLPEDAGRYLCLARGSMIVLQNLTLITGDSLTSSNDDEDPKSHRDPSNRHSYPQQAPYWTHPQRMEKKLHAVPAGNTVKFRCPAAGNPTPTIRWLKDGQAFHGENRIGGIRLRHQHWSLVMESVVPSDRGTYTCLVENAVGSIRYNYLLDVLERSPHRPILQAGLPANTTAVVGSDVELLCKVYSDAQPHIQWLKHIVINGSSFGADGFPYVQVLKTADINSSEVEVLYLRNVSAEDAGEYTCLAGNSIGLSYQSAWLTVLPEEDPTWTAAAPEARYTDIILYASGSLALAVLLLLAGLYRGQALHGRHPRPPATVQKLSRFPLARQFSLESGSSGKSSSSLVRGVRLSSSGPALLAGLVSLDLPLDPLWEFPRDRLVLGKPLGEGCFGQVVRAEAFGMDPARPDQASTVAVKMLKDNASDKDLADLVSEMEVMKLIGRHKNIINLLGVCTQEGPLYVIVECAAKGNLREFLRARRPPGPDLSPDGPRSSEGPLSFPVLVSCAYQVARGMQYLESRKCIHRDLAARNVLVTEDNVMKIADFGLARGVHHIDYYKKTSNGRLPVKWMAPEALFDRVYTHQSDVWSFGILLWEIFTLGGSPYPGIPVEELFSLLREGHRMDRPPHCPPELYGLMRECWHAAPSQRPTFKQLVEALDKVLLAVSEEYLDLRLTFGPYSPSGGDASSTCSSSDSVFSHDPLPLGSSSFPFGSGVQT

[16] = system: Receptor-type tyrosine-protein kinase FLT3 (Homo sapiens), P36888 [R834Q]
[17] = target: Serine/threonine-protein kinase haspin (Homo sapiens) (UniProt Q8TF76)
[18] = target: Homeodomain-interacting protein kinase 1 (Homo sapiens) (UniProt Q86Z02)
[19] = target: Inhibitor of nuclear factor kappa-B kinase subunit epsilon (Homo sapiens) (UniProt Q14164)
Chain of Inhibitor of nuclear factor kappa-B kinase subunit epsilon (Homo sapiens) (Q14164 whole entry): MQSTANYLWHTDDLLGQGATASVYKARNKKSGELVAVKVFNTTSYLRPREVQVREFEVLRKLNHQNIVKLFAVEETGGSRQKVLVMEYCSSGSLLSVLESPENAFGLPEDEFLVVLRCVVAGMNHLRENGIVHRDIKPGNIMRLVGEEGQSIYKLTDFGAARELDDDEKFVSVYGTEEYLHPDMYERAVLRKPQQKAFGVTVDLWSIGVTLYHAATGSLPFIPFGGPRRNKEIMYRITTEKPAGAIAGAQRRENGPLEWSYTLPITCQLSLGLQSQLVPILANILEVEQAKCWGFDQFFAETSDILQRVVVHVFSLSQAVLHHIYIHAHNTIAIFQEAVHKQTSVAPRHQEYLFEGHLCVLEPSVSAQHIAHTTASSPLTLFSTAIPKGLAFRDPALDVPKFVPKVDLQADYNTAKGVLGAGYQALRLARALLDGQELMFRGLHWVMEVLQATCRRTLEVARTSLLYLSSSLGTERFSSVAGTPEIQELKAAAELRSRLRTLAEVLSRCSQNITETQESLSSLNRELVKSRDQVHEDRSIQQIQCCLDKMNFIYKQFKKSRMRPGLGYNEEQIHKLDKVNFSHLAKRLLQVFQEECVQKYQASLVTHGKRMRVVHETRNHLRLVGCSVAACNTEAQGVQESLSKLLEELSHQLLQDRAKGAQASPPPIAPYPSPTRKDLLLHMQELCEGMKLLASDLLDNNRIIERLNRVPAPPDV

[20] = target: Interleukin-1 receptor-associated kinase 3 (Homo sapiens) (UniProt Q9Y616)
[21] = target: Tyrosine-protein kinase JAK1 (Homo sapiens) (UniProt P23458)
[22] = target: Tyrosine-protein kinase Lck (Homo sapiens) (UniProt P06239)
[23] = system: Leucine-rich repeat serine/threonine-protein kinase 2 (Homo sapiens), Q5S007 [G2019S]
[24] = target: Mitogen-activated protein kinase kinase kinase kinase 4 (Homo sapiens) (UniProt O95819)
[25] = target: Mitogen-activated protein kinase kinase kinase kinase 5 (Homo sapiens) (UniProt Q9Y4K4)
[26] = target: MAP kinase-activated protein kinase 2 (Homo sapiens) (UniProt P49137)
[27] = target: Dual specificity mitogen-activated protein kinase kinase 3 (Homo sapiens) (UniProt P46734)
[28] = target: Serine/threonine-protein kinase MRCK alpha (Homo sapiens) (UniProt Q5VT25)
[29] = target: Muscle, skeletal receptor tyrosine-protein kinase (Homo sapiens) (UniProt O15146)
Chain of Muscle, skeletal receptor tyrosine-protein kinase (Homo sapiens) (O15146 whole entry): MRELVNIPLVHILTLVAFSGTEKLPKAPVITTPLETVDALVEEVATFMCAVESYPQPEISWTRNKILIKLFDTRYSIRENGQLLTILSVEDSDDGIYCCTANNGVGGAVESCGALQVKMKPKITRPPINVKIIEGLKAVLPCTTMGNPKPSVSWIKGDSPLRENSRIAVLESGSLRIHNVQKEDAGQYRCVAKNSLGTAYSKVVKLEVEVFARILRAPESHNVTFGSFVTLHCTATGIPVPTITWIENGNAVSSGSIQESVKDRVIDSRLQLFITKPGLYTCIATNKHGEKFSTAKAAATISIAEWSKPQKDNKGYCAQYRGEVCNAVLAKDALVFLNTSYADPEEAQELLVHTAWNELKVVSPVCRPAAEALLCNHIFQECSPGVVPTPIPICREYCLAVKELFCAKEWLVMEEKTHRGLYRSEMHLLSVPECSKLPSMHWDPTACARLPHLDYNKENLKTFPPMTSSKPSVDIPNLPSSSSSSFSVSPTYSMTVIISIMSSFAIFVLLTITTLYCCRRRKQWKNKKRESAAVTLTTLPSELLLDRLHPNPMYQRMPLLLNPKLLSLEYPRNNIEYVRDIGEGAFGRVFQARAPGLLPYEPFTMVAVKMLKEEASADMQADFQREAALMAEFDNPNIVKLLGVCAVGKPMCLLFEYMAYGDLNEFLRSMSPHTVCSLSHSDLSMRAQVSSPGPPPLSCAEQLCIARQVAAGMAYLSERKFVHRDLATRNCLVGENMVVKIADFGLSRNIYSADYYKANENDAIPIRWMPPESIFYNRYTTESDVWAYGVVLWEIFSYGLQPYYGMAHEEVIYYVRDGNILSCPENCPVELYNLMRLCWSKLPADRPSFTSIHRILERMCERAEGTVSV

[30] = target: Serine/threonine-protein kinase 38-like (Homo sapiens) (UniProt Q9Y2H1)
[31] = target: Serine/threonine-protein kinase Nek3 (Homo sapiens) (UniProt P51956)
[32] = target: Serine/threonine-protein kinase Nek6 (Homo sapiens) (UniProt Q9HC98)
[33] = target: 3-phosphoinositide-dependent protein kinase 1 (Homo sapiens) (UniProt O15530)
Chain of 3-phosphoinositide-dependent protein kinase 1 (Homo sapiens) (O15530 whole entry): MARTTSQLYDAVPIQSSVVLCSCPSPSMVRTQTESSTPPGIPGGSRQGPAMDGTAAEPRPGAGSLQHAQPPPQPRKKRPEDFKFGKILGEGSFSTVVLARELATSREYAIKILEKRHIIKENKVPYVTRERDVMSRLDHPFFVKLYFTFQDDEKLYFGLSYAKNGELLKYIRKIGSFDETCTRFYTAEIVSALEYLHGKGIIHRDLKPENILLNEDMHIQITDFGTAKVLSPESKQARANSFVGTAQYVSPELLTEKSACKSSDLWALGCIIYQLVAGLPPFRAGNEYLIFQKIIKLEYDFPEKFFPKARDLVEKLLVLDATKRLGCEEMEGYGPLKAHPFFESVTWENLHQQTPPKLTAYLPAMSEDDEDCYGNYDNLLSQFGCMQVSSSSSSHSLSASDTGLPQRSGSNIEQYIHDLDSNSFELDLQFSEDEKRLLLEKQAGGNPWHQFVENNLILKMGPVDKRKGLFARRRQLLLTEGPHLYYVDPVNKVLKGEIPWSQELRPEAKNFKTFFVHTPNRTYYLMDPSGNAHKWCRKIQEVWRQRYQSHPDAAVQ

[34] = target: Calcium-dependent protein kinase 1 (Plasmodium falciparum) (UniProt P62344)
[35] = target: Phosphorylase b kinase regulatory subunit alpha, liver isoform (Homo sapiens) (UniProt P46019)
Chain of Phosphorylase b kinase regulatory subunit alpha, liver isoform (Homo sapiens) (P46019 whole entry, canonical isoform): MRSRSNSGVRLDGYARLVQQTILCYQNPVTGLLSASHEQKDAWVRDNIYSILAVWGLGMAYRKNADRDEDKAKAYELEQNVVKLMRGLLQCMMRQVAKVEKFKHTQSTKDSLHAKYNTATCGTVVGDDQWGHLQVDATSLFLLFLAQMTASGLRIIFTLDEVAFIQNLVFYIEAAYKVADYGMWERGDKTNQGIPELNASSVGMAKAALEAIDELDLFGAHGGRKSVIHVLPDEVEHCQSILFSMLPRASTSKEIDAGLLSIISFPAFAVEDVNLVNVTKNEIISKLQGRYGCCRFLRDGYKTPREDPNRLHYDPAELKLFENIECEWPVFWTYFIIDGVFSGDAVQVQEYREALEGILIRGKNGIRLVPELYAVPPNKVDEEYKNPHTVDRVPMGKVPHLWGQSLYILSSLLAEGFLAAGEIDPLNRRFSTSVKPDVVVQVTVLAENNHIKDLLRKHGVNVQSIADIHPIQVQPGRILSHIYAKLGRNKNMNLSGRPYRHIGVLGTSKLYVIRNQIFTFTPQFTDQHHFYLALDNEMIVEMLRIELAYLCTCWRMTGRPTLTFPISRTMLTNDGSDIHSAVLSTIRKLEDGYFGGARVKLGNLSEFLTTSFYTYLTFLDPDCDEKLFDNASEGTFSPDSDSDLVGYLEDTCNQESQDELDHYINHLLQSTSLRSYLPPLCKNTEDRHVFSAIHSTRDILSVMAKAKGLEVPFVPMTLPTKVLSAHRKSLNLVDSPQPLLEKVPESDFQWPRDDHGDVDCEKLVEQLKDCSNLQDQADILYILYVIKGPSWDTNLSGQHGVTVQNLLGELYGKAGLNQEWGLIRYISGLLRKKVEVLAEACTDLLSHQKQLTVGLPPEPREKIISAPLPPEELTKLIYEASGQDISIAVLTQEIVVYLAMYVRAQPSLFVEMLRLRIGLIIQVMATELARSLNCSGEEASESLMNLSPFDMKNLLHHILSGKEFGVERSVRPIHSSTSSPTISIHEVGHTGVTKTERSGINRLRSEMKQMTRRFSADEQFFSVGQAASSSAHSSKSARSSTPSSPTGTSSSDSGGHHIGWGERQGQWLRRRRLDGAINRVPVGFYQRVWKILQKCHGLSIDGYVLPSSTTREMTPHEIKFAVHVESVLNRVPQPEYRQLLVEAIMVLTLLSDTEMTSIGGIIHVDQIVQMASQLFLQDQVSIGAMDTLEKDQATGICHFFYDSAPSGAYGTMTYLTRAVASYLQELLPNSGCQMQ

[36] = system: Phosphatidylinositol 4,5-bisphosphate 3-kinase catalytic subunit alpha isoform (Homo sapiens), P42336 [Q546K]
[37] = target: Serine/threonine-protein kinase pim-2 (Homo sapiens) (UniProt Q9P1W9)
[38] = target: Protein kinase C iota type (Homo sapiens) (UniProt P41743)
[39] = target: Serine/threonine-protein kinase RIO2 (Homo sapiens) (UniProt Q9BVS4)
[40] = target: Ribosomal protein S6 kinase alpha-3 (Homo sapiens) (UniProt P51812)
[41] = target: Tyrosine-protein kinase receptor Tie-1 (Homo sapiens) (UniProt P35590)
[42] = target: TRAF2 and NCK-interacting protein kinase (Homo sapiens) (UniProt Q9UKE5)
[43] = target: NT-3 growth factor receptor (Homo sapiens) (UniProt Q16288)
[44] = target: 5-hydroxytryptamine receptor 1B (Homo sapiens) (UniProt P28222); conditions: Compound concentration 10.0 uM
[45] = target: 5-hydroxytryptamine receptor 1D (Homo sapiens) (UniProt P28221); conditions: Compound concentration 10.0 uM
[46] = Compound concentration 1000.0 nM
[47] = Compound concentration 100.0 nM

`CN(C)c1ncnc(-c2ccc3nc(Nc4cc(CN5CCN(C(=O)CC(F)(F)F)CC5)ccn4)[nH]c3c2)c1Cl` [BAY-440] showed a residual activity [1, 46] of 49%, a residual activity [2, 46] of 43% and a residual activity [3, 46] of 29%. It also gave a residual activity [4, 46] of 37%, a residual activity [5, 46] of 51% and a residual activity [6, 46] of 90%. For the same molecule, the residual activity [7, 46] was 84%, the residual activity [8, 46] was 95% and the residual activity [9, 46] was 89%. The residual activity [10, 46] was 100%, the residual activity [11, 46] was 78% and the residual activity [12, 46] was 100%. For the same molecule, the residual activity [13, 46] was 88%, the residual activity [14, 46] was 100% and the residual activity [15, 46] was 92%. It also gave a residual activity [16, 46] of 77%, a residual activity [17, 46] of 100% and a residual activity [18, 46] of 74%. For the same molecule, the residual activity [19, 46] was 13%, the residual activity [20, 46] was 97% and the residual activity [21, 46] was 68%. The residual activity [22, 46] was 100%, the residual activity [23, 46] was 69% and the residual activity [24, 46] was 100%. It also gave a residual activity [25, 46] of 100%, a residual activity [26, 46] of 100% and a residual activity [27, 46] of 73%. It also gave a residual activity [28, 46] of 100%, a residual activity [29, 46] of 100% and a residual activity [30, 46] of 74%. It also gave a residual activity [31, 46] of 69%, a residual activity [32, 46] of 98% and a residual activity [33, 46] of 100%. For the same molecule, the residual activity [34, 46] was 100%, the residual activity [35, 46] was 100% and the residual activity [36, 46] was 30%. The residual activity [37, 46] was 100%, the residual activity [38, 46] was 79% and the residual activity [39, 46] was 81%. The residual activity [40, 46] was 81%, the residual activity [41, 46] was 66% and the residual activity [42, 46] was 53%. It also gave a residual activity [43, 46] of 61%, an inhibition [44] of 6.15% and an inhibition [45] of 19.5%.

With `C[C@H](c1ccnc(Nc2nc3ccc(-c4cc(N(C)C)ncn4)cc3[nH]2)c1)N1CCN(C(=O)CC(F)(F)F)CC1` [BAY-985] the residual activity [1, 47] was 97%, the residual activity [2, 47] was 100% and the residual activity [3, 47] was 84%. The residual activity [4, 47] was 91%, the residual activity [5, 47] was 85% and the residual activity [6, 47] was 100%. For the same molecule, the residual activity [7, 47] was 100%, the residual activity [8, 47] was 97% and the residual activity [9, 47] was 100%. For the same molecule, the residual activity [10, 47] was 100%, the residual activity [11, 47] was 100% and the residual activity [12, 47] was 74%. For the same molecule, the residual activity [13, 47] was 86%, the residual activity [14, 47] was 93% and the residual activity [15, 47] was 98%. For the same molecule, the residual activity [16, 47] was 100%, the residual activity [17, 47] was 100% and the residual activity [18, 47] was 95%. It also gave a residual activity [19, 47] of 9.9%, a residual activity [20, 47] of 76% and a residual activity [21, 47] of 100%. It also gave a residual activity [22, 47] of 100%, a residual activity [23, 47] of 100% and a residual activity [24, 47] of 91%. It also gave a residual activity [25, 47] of 96%, a residual activity [26, 47] of 100% and a residual activity [27, 47] of 97%. The residual activity [28, 47] was 99%, the residual activity [29, 47] was 97% and the residual activity [30, 47] was 65%. The residual activity [31, 47] was 100%, the residual activity [32, 47] was 83% and the residual activity [33, 47] was 76%. For the same molecule, the residual activity [34, 47] was 100%, the residual activity [35, 47] was 81% and the residual activity [36, 47] was 45%. It also gave a residual activity [37, 47] of 100%, a residual activity [38, 47] of 100% and a residual activity [39, 47] of 100%. The residual activity [40, 47] was 100%, the residual activity [41, 47] was 85% and the residual activity [42, 47] was 96%. For the same molecule, the residual activity [43, 47] was 100%, the inhibition [44] was 11.5% and the inhibition [45] was 23.2%.
